The numbers were not newly measured in PubChem BioAssay AID1259409 (Chemical Carcinogenesis Research Information System (CCRIS), 2018), which cites them from elsewhere.

Structures are written as SMILES.

The data set concerns rodent chemically induced tumor inhibition, incidence and multiplicity. Description: CCRIS tumor inhibitor studies. The conditions noted are these: Promoter: NONE USED.

Consider `O=P(O)(O)O`, for which the “tumour outcome (control, treated, inhibition, significance)” value (Carcinogen: N-ETHYL-N-HYDROXYETHYLNITROSAMINE, 13147-25-6, Dose [Inhibitor]: 0, 10% IN DIET OF UNILATERALLY NEPHRECTOMIZED RATS BEGINNING POST CARCINOGEN TREATMENT AND CONTINUING FOR 18 WK (STUDY D, Route [Inhibitor]: ORAL, Species: RAT, Strain/Sex: WISTAR/MALE, Target Tissue: Type of Lesion: KIDNEY: RENAL CELL TUMOR, Dose [Carcinogen]: 1000 PPM IN DIET FOR 2 WK) was 5/20 (25%), 3/18 (17%), 32%, not calculated.
Consider `O=C(O)[C@@H]1CCCN1` (tested in a mixture with another compound), for which the “tumour outcome (control, treated, inhibition, significance)” value is, setting by setting: (Carcinogen: N-NITROSODIETHYLAMINE, 55-18-5, Dose [Inhibitor]: 0, 50 MG/KG 2/WK 1 HR PRIOR TO AND 24 HR POST CARCINOGEN TREATMENT FOR 10 WK (STUDY DURATION: 28 WK), Route [Inhibitor]: INTRAPERITONEAL, Species: RAT, Strain/Sex: BD-6/MALE, Target Tissue: Type of Lesion: LIVER: TUMOR, Dose [Carcinogen]: 80 MG/KG 1/WK FOR 10 WK) 22/23 (96%), 5/23 (22%), 77%, p<0.001; (Carcinogen: N-NITROSODIETHYLAMINE, 55-18-5, Dose [Inhibitor]: 0, 100 MG/KG 2/WK 1 HR PRIOR TO AND 24 HR POST CARCINOGEN TREATMENT FOR 10 WK (STUDY DURATION: 28 WK), Route [Inhibitor]: INTRAPERITONEAL, Species: RAT, Strain/Sex: BD-6/MALE, Target Tissue: Type of Lesion: LIVER: TUMOR, Dose [Carcinogen]: 80 MG/KG 1/WK FOR 10 WK) 22/23 (96%), 9/21 (43%), 55%, p<0.001; (Carcinogen: N-NITROSODIETHYLAMINE, 55-18-5, Dose [Inhibitor]: 0, 100 MG/KG 2/WK 1 HR PRIOR TO AND 24 HR POST CARCINOGEN TREATMENT FOR 10 WK (STUDY DURATION: 40 WK), Route [Inhibitor]: INTRAPERITONEAL, Species: RAT, Strain/Sex: BD-6/MALE, Target Tissue: Type of Lesion: LIVER: TUMOR, Dose [Carcinogen]: 80 MG/KG 1/WK FOR 10 WK) 22/23 (96%), 8/20 (40%), 58%, not calculated.
As for `COc1cc(C)c(/C=C/C(C)=C/C=C/C(C)=C/C(=O)O)c(C)c1C`, the “tumour outcome (control, treated, inhibition, significance)” value is given as 30/37 (81%), 27/37 (73%), 10%, not significant (Carcinogen: N-METHYL-N-NITROSOUREA, 684-93-5, Dose [Inhibitor]: 75 MG/KG DIET DAILY FOR 55 WK STARTING 1 WK AFTER LAST CARCINOGEN EXPOSURE (STUDY DURATION: 65 WK), Route [Inhibitor]: ORAL, Species: HAMSTER, Strain/Sex: SYRIAN/MALE, Target Tissue: Type of Lesion: TRACHEA: TUMOR, Dose [Carcinogen]: 1% FOR 7 SECONDS 2/WK FOR 9 WK); 30/37 (81%), 24/38 (63%), 22%, not significant (Carcinogen: N-METHYL-N-NITROSOUREA, 684-93-5, Dose [Inhibitor]: 150 MG/KG DIET DAILY FOR 55 WK STARTING 1 WK AFTER LAST CARCINOGEN EXPOSURE (STUDY DURATION: 65 WK), Route [Inhibitor]: ORAL, Species: HAMSTER, Strain/Sex: SYRIAN/MALE, Target Tissue: Type of Lesion: TRACHEA: TUMOR, Dose [Carcinogen]: 1% FOR 7 SECONDS 2/WK FOR 9 WK); 32/38 (84%), 34/39 (87%), -4%, not significant (Carcinogen: N-METHYL-N-NITROSOUREA, 684-93-5, Dose [Inhibitor]: 150 MG/KG DIET DAILY FOR 55 WK STARTING 1 WK AFTER LAST CARCINOGEN EXPOSURE (STUDY DURATION: 66 WK), Route [Inhibitor]: ORAL, Species: HAMSTER, Strain/Sex: SYRIAN/MALE, Target Tissue: Type of Lesion: TRACHEA: TUMOR, Dose [Carcinogen]: 1% FOR 7 SECONDS 2/WK FOR 10 WK); 24/40 (60%), 24/40 (60%), 0%, not significant (Carcinogen: N-METHYL-N-NITROSOUREA, 684-93-5, Dose [Inhibitor]: 150 MG/KG DIET DAILY FOR 55 WK STARTING 1 WK AFTER LAST CARCINOGEN EXPOSURE (STUDY DURATION: 67.5 WK), Route [Inhibitor]: ORAL, Species: HAMSTER, Strain/Sex: SYRIAN/MALE, Target Tissue: Type of Lesion: TRACHEA: TUMOR, Dose [Carcinogen]: 1% FOR 7 SECONDS 2/WK FOR 11.5 WK).
